Tested on: PGRN protein levels
Experiment: PGRN quantification (Jess) in human NPCs
Assay type: cell-based
Settings: for increase in PGRN protein levels: 1 µM for 24 h; for increase in PGRN: lysed immediately
Procedure: PGRN capillary gel electrophoresis experiments were performed using Jess (Bio-Techne) and data were processed and analyzed using Compass for Simple Western software (version 6.0). Runs were conducted using EZ Standard Pack 1 12-230 kDa (Bio-Techne PS-ST01EZ-8), 12-230 kDa pre-filled plates (PS-PP03), 12-230 kDa separation module (SMW004), anti-rabbit HRP detection ([…]-001), and total protein detection modules (DM-TP01, biotin labeling reagent 042-973) according to the manufacturer's instructions, and with anti-PGRN primary (Abcam ab208777) diluted 1:50 in milk-free antibody dilution buffer (043-524). […] All intensity quantifications are normalized to the total protein assay quantification unless otherwise indicated. NPCs were cultured normally in 6-well plates as described previously. Upon reaching confluency, DMSO or MLN-4924 (Cayman #15,217, 10 mM stock in DMSO) were diluted 1:5000 into NPC media with growth factors. 1 mL of media was aspirated from the cell cultures, and 1 mL of MLN-4924 or DMSO dilutions were then added to respective wells (final well concentration: 1 μM MLN-4924 in select wells, 0.01% DMSO for all wells). Plates returned to the incubator. […] Plates returned to the incubator. After 4 h, to the indicated wells is directly added 1 μL 2 mM mivebresib (MedChem Express HY-100015) in DMSO for a final concentration of 1 μM, or 1 μL DMSO. All plates were returned to the incubator overnight. The next day, 24 h from the addition of mivebresib, plates were removed from the incubator, and all wells were washed with 2 mL PBS, and then lysed in 300 μL M-PER lysis buffer with protease inhibitors. Cells were allowed to lyse for 15 min at 4 °C with light nutation, and then lysate was transferred to a 1.5-mL Eppendorf tube which was then spun down at 20 k rcf at 4 °C for 10 min. 200 μL of supernatant was then transferred to a fresh, labeled Eppendorf rube, which was then stored at - 20 °C prior to further analysis. Sample concentration was quantified using the BCA assay as described above, and normalized to 250 μg/mL in M-PER lysis buffer prior to PGRN quantification using the Jess. NPCs were cultured normally as described previously. 6-well plates were seeded at 300,000 cells/well in 2 mL of NPC media with EGF, bFGF, and heparin as described above. Cells were allowed to grow to confluency for three nights at 37 °C with 5% CO2. […] These solutions were then diluted 1:10 in NPC media with growth factors containing 0.2% DMSO to make 100 nM compound solutions. Treatment wells were washed with 2 mL PBS prior to addition of 2 mL NPC media with growth factors containing compound (or DMSO only) at indicated concentrations (3 replicates per condition, 6 DMSO replicates). Plates were then allowed to incubate at 37 °C with 5% CO2 for 24 h. After 24 h, cells were removed from the incubator, washed with 1 mL PBS, and then lysed with 500 μL M-PER lysis buffer (Thermo Fisher #78,501) with 1 cOmplete Mini, EDTA-free protease inhibitor added (Sigma-Aldrich#11,836,170,001) per 15 mL lysis buffer. Plates were allowed to nutate at 4 °C for 15 min before transferring the lysate to 1.5 mL Eppendorf tubes, which were then spun down at 20,000 rcf at 4 °C for 10 min. 400 μL of the supernatant was then transferred to fresh 1.5-mL Eppendorf tubes, which were then frozen down at - 80 °C prior to further use. Samples were removed from the - 80 °C and concentrations were determined via BCA assay (Thermo Scientific #23,227) using a pre-diluted BSA standard (Life Technologies #23,208) on a 96-well polystyrene plate (Thermo Fisher #12,565,500). Samples were diluted to 0.25 mg/mL using M-PER lysis buffer prior to PGRN quantification using the Jess. NPCs were cultured as described above, and seeded onto coated 24-well plates at 150,000 cells/well in 1 mL NPC media with growth factors. Plates were allowed to grow to ~ 100% confluency for three nights at 37 °C with 5% CO2. […] Plates were allowed to incubate overnight at 37 °C with 5% CO2 for 24 h. […]

## Cn1cc(-c2cccnc2Oc2ccc(F)c(F)c2)c2cc[nH]c2c1=O [Compound 81A, 4-(2-(3,4-difluorophenoxy)pyridin-3-yl)-6-methyl-1,6-dihydro-7H-pyrrolo[2,3-c]pyridin-7-one]
  increase in PGRN protein levels: > twofold

## CCS(=O)(=O)Nc1ccc(Oc2ccc(F)cc2F)c(-c2cn(C)c(=O)c3[nH]ccc23)c1 [mivebresib]
100 nM, 24 h
  enhancement of PGRN protein levels: ~ 120%
1 µM for 2 h, then 22 h of incubation post-washout
  enhancement of PGRN protein levels after washout: > twofold
1 µM for 8 h, washout, lysis 24 h from compound addition
  enhancement of PGRN protein levels after washout: more pronounced effect
1 µM mivebresib 24 h, vs matching bar without mivebresib
  Normalized PGRN (Fold-DMSO): 1.82 x
1 µM mivebresib 24 h with 300 nM dBET6
  Normalized PGRN (Fold-DMSO): 1.26 x
1 µM mivebresib 24 h with 1 µM MLN-4924 and 300 nM dBET6
  Normalized PGRN (Fold-DMSO): 1.47 x
1 µM, 8 h
  increase in PGRN: ~ 1.4 fold
1 µM, 24 h
  enhancement of PGRN protein levels: ~140%
  increase in PGRN: ~ 2.7 fold

## Cn1cc(-c2cccnc2Nc2ccc(F)cc2)c2cc[nH]c2c1=O [Compound 85A, 4-(2-((4-fluorophenyl)amino)pyridin-3-yl)-6-methyl-1,6-dihydro-7H-pyrrolo[2,3-c]pyridin-7-one]
  increase in PGRN protein levels: > twofold

## Cn1cc(-c2cccnc2Sc2ccc(F)cc2)c2cc[nH]c2c1=O [Compound 84A, 4-(2-((4-fluorophenyl)thio)pyridin-3-yl)-6-methyl-1,6-dihydro-7H-pyrrolo[2,3-c]pyridin-7-one]
  increase in PGRN protein levels: less substantial response

## Cn1cc(-c2cccnc2Oc2cc(F)cc(F)c2)c2cc[nH]c2c1=O [Compound 82A, 4-(2-(3,5-difluorophenoxy)pyridin-3-yl)-6-methyl-1,6-dihydro-7H-pyrrolo[2,3-c]pyridin-7-one]
  increase in PGRN protein levels: > twofold

## Cn1ccc2c(-c3cc(F)cnc3Oc3ccc(F)cc3)c[nH]c2c1=O [Compound 86B, 3-(5-fluoro-2-(4-fluorophenoxy)pyridin-3-yl)-6-methyl-1,6-dihydro-7H-pyrrolo[2,3-c]pyridin-7-one]
  increase in PGRN protein levels: unable to upregulate PGRN

## Cn1ccc2c(-c3cccnc3Oc3ccc(F)cc3)c[nH]c2c1=O [Compound 18B, 3-[2-(4-fluorophenoxy)pyridin-3-yl]-6-methyl-1,6-dihydro-7H-pyrrolo[2,3-c]pyridin-7-one]
  increase in PGRN protein levels: significantly enhance PGRN protein levels

## Cn1ccc2c(-c3cccnc3Sc3ccc(F)cc3)c[nH]c2c1=O [Compound 84B, 3-(2-((4-fluorophenyl)thio)pyridin-3-yl)-6-methyl-1,6-dihydro-7H-pyrrolo[2,3-c]pyridin-7-one]
  increase in PGRN protein levels: significantly enhance PGRN protein levels

## Cn1ccc2c(-c3cccnc3Oc3ccc(F)c(F)c3)c[nH]c2c1=O [Compound 81B, 3-(2-(3,4-difluorophenoxy)pyridin-3-yl)-6-methyl-1,6-dihydro-7H-pyrrolo[2,3-c]pyridin-7-one]
  increase in PGRN protein levels: significantly enhance PGRN protein levels

## Cn1cc(-c2cc(F)cnc2Oc2ccc(F)cc2)c2cc[nH]c2c1=O [Compound 86A, 4-(5-fluoro-2-(4-fluorophenoxy)pyridin-3-yl)-6-methyl-1,6-dihydro-7H-pyrrolo[2,3-c]pyridin-7-one]
  increase in PGRN protein levels: less substantial response

## Cn1cc(-c2cccnc2Oc2ccc(F)cc2)c2cc[nH]c2c1=O [Compound 18A, 4-(2-(4-fluorophenoxy)pyridin-3-yl)-6-methyl-1H-pyrrolo[2,3-c]pyridin-7(6H)-one]
  increase in PGRN protein levels: > twofold

## Cn1ccc2c(-c3cccnc3Nc3ccc(F)cc3)c[nH]c2c1=O [Compound 85B, 3-(2-((4-fluorophenyl)amino)pyridin-3-yl)-6-methyl-1,6-dihydro-7H-pyrrolo[2,3-c]pyridin-7-one]
  increase in PGRN protein levels: unable to upregulate PGRN

## Cn1ccc2c(-c3cccnc3Oc3cc(F)cc(F)c3)c[nH]c2c1=O [Compound 82B, 3-(2-(3,5-difluorophenoxy)pyridin-3-yl)-6-methyl-1,6-dihydro-7H-pyrrolo[2,3-c]pyridin-7-one]
  increase in PGRN protein levels: significantly enhance PGRN protein levels
